This assay has as its target T1, PD-1/PD-L1 interaction (PD-1-Ig / PD-L1-His) (Homo sapiens, UniProt Q9NZQ7).
T1 construct: hPDL1(18-239)-TVMV-His; TVMV protease site linker (C); made in house; host or cells: HEK293T
The assay is described as follows: PD-1/PD-L1 Homogenous Time-Resolved Fluorescence (HTRF) binding assay. The following applies: PD-L1-His 10 nM, PD-1-Ig 20 nM, read-out: Range or IC50. From the text: The ability of the compounds of formula (I) to bind to PD-L1 was investigated using a PD-1/PD-L1 Homogenous Time-Resolved Fluorescence (HTRF) binding assay.
Homogenous Time-Resolved Fluorescence (HTRF) Binding Assay.
The interaction of PD-1 and PD-L1 can be assessed using soluble, purified preparations of the extracellular domains of the two proteins. The PD-1 and PD-L1 protein extracellular domains were expressed as fusion proteins with detection tags, for PD-1, the tag was the Fc portion of Immunoglobulin (PD-1-Ig) and for PD-L1 it was the 6 histidine motif (PD-L1-His). All binding studies were performed in an HTRF assay buffer consisting of dPBS supplemented with 0.1% […] bovine serum albumin and 0.05% (v/v) Tween-20. For the h/PD-L1-His binding assay, inhibitors were pre-incubated with PD-L1-His (10 nM final) for 15 m in 4 μl of assay buffer, followed by addition of PD-1-Ig (20 nM final) in 1 μl of assay buffer and further incubation for 15 m. HTRF detection was achieved using europium crypate-labeled anti-Ig (1 nM final) and allophycocyanin (APC) labeled anti-His (20 nM final). Antibodies were diluted in HTRF detection buffer and 5 μl was dispensed on top of the binding reaction. […] Additional binding assays were established between the human proteins PD-1-Ig/PD-L2-His (20 & 5 nM, respectively) and CD80-His/PD-L1-Ig (100 & 10 nM, respectively). […]

Where two headings read alike, the source gives them in different places. Some results are limits rather than exact numbers.

T1 sequence (Q9NZQ7 with tags, fused parts or gaps): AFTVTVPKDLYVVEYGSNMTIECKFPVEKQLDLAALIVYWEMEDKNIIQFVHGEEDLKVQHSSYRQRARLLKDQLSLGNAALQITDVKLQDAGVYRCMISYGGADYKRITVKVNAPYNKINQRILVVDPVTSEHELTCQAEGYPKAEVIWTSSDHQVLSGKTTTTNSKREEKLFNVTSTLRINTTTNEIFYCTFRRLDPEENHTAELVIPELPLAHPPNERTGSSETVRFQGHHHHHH

What is called IC50 is the midpoint of a concentration-inhibition curve. For the molecule `Cc1c(OCCCN2CC[C@@H](O)C2)cccc1-c1ccc2c(c1)OC(CCN1CC[C@@H](O)C1)CO2` (single isomer, unassigned) [Example 3030], the IC50 (IC50 range class) lay in the range of 0.04 to 20 nM.

`Cc1c(OCCCN2CC[C@@H](O)C2)cccc1-c1ccc2c(c1)OC(CCN1CC[C@@H](O)C1)CO2` (single isomer, unassigned) [Example 3031]: the IC50 (IC50 range class) is 0.04 to 20 nM.

As to `Cc1c(OCCCN2CC[C@@H](O)C2)cccc1-c1cccc(OCCCN2CC(O)C[C@H]2C(=O)O)c1C` (stereo in doubt) [Example 2051, (2S,4R)-4-hydroxy-1-(3-((3′-(3-((R)-3-hydroxypyrrolidin-1-yl)propoxy)-2,2′-dimethyl-[1,1′-biphenyl]-3-yl)oxy)propyl)pyrrolidine-2-carboxylic acid], the IC50 (IC50 range class) is 1000 to 10000 nM.

For the molecule `Cc1c(OCCCN2CCC(O)(CC(=O)O)C2)cccc1-c1cccc(OCCCN2CCC(O)(CC(=O)O)C2)c1Cl` (stereo not drawn) [Example 1001, 2,2′-((((2-chloro-2′-methyl-[1,1′-biphenyl]-3,3′-diyl)bis(oxy))bis(propane-3,1-diyl))bis(3-hydroxypyrrolidine-1,3-diyl))diacetic acid], for the setting “IC50 range class”, the IC50 lay within 20.1 to 90 nM.

Take `Cc1c(OCCCN2CCC(O)(C(=O)O)CC2)cccc1-c1cccc(OCCCN2CCC(O)(C(=O)O)CC2)c1Cl` [Example 1002, 1,1′-(((2-chloro-2′-methyl-[1,1′-biphenyl]-3,3′-diyl)bis(oxy))bis(propane-3,1-diyl))bis(4-hydroxypiperidine-4-carboxylic acid)]: the half-maximal inhibitory concentration (IC50) (IC50 range class) lay within 0.04 to 20 nM.

Consider `Cc1c(OCCCN2C[C@H](O)C[C@H]2C(=O)O)cccc1-c1cccc(OCCCN2C[C@H](O)C[C@H]2C(=O)O)c1Cl` [Example 1003, (2S,2′S,4R,4′R)-1,1′-(((2-chloro-2′-methyl-[1,1′-biphenyl]-3,3′-diyl)bis(oxy))bis(propane-3,1-diyl))bis(4-hydroxypyrrolidine-2-carboxylic acid)], for which the IC50 (IC50 range class) is > 10000 nM.

Take `Cc1ccc(OCCCN2CC[C@@H](O)C2)cc1-c1cccc(OCCCN2CC[C@@H](O)C2)c1C` [Example 1004, (3R,3′R)-1,1′-(((2,6′-dimethyl-[1,1′-biphenyl]-3,3′-diyl)bis(oxy))bis(propane-3,1-diyl))bis(pyrrolidin-3-ol)]: the IC50 (IC50 range class) was 1000 to 10000 nM.

Turning to `CC(=O)N1CCN(CCCOc2cccc(-c3cccc(OCCCN4CC[C@@H](O)C4)c3C)c2C)CC1` [Example 2001, (R)-1-(4-(3-((3′-(3-(3-hydroxypyrrolidin-1-yl)propoxy)-2,2′-dimethyl-[1,1′-biphenyl]-3-yl)oxy)propyl)piperazin-1-yl)ethan-1-one], the IC50 (IC50 range class) lay in the range of 20.1 to 90 nM.

Turning to `Cc1c(OCCCN2CC(N(C)C)C2)cccc1-c1cccc(OCCCN2CC[C@@H](O)C2)c1C` [Example 2002, (R)-1-(3-((3′-(3-(3-(dimethylamino)azetidin-1-yl)propoxy)-2,2′-dimethyl-[1,1′-biphenyl]-3-yl)oxy)propyl)pyrrolidin-3-ol], the IC50 (numeric IC50) was found to be 99 nM.

On to `COc1cc2c(cc1OC)CN(CCCOc1cccc(-c3cccc(OCCCN4CC[C@@H](O)C4)c3C)c1C)CC2` [Example 2004, (R)-1-(3-((3′-(3-(6,7-dimethoxy-3,4-dihydroisoquinolin-2(1H)-yl)propoxy)-2,2′-dimethyl-[1,1′-biphenyl]-3-yl)oxy)propyl)pyrrolidin-3-ol], for which the IC50 (IC50 range class) was in the range of 20.1 to 90 nM.

As for `Cc1c(OCCCNCCN2CCOCC2)cccc1-c1cccc(OCCCN2CC[C@@H](O)C2)c1C` [Example 2005, (R)-1-(3-((2,2′-dimethyl-3′-(3-((2-morpholinoethyl)amino)propoxy)-[1,1′-biphenyl]-3-yl)oxy)propyl)pyrrolidin-3-ol], the 50% inhibitory concentration (IC50) (IC50 range class) is 20.1 to 90 nM.

For `Cc1c(OCCCNCc2ccncc2)cccc1-c1cccc(OCCCN2CC[C@@H](O)C2)c1C` [Example 2006, (R)-1-(3-((2,2′-dimethyl-3′-(3-((pyridin-4-ylmethyl)amino)propoxy)-[1,1′-biphenyl]-3-yl)oxy)propyl)pyrrolidin-3-ol], the IC50 (IC50 range class) was 90.1 to 1000 nM.

These data come from patent US10144706B2 (BRISTOL-MYERS SQUIBB COMPANY, priority 2016, dated 2018).
